Experiments:
Type in all cases: in vivo, Sprague-Dawley rats
CD38 [1] = test: Western blot of CD38 expression in liver tissues of streptozotocin-induced diabetic rats; parameters: % Decrease of CD38 Disease control: concentration or dose not given beside the values; settings: STZ diabetic rats; for % Decrease of CD38 Disease control: liver tissue, 28 days treatment, versus diabetic control G2
Procedure: (§1) “To evaluate the antidiabetic potential of the present compositions and its mechanistic role in controlling damages of vital tissues in streptozotocin-induced diabetic rats.”
(§2) • Species: Rats • Strain: Sprague-Dawley • Sex: Male • No. of animals: 36 Animals (n=6 per group) • Body weight: 110-130 g Animal House conditions • Lighting: 12/12-hour light-dark cycle • Temperature: 22±3° C. • Relative Humidity: 40 to 60%
(§3) Acclimatization: Animals have been acclimatized to the animal house environment for 2 weeks. The animal experiments were designed and conducted strictly in accordance with the guidelines of AEC. Streptozotocin (STZ) was freshly prepared in 0.1M citrate buffer (pH 4.5). T2D was induced experimentally by single intraperitoneal (i.p.) injection of low dose STZ (40 mg per kg) to the rats, kept fasted overnight. Animals were unfed for 12 h before the estimation of fasting blood glucose. When the fasting plasma glucose level had become above 250 mg dL-1 in 72 h after STZ administration, STZ treated animals were considered as diabetic and all the experimental animals were then kept without any treatment for a period of 2 weeks. The composition treatment was started on 15th day after STZ injection in the respective groups of rats.
(§4) Test sample was dissolved in water containing 0.1% v/v Dimethyl Sulfoxide (DMSO) for animal treatment. Diabetic rats were then treated with intracerebroventricular (i.c.v.) administration of test samples. The animals were divided in six groups each of which contained six rats:
(§5) Daily food and water consumptions were observed and body weights were taken on a weekly basis. After 72 h of STZ administration, blood was drawn from tail vein of rats and fasting blood glucose was measured by glucometer. On the last day of the experiment, all rats were sacrificed by common method of euthanasia. All animals were unfed for 12 h before being killed. Liver, kidneys, pancreas tissues and skeleton muscles were removed surgically and stored at −80° C. in a deep freezer for western blot analysis.
(§6) GLUT4 and CD38 expressions were evaluated by Western blot. For GLUT4 content analysis, membrane samples were prepared from skeletal muscles and for CD38 protein analysis, liver tissues were used. In Western blot analysis, 25 μg of membrane protein per sample was subjected to Sodium Dodecyl Sulfate (SDS) polyacrylamide gel electrophoresis in parallel with molecular weight markers on a 10% resolving gel. The separated proteins were then transferred to a nitrocellulose membrane in a semidry system. β-tubulin was used to ensure equivalent loading of the gel incubating the same membrane with β-tubulin antibody after stripping.
(§7) Western blotting kit was used for immunodetection, using anti-GLUT4 and anti-CD38 antibodies. Detection was done by the enhanced chemiluminescence method and densitometric quantitation was done by scanning of the autoradiographic GLUT4 and CD38 signals with the help of software. Densitometric scanning was indicated the (percentage of band intensity) of GLUT4 bands and CD38 bands of test samples treated diabetic rats and diabetic control rats. Data were expressed as percentage increase or decrease of intensity of band.
(§8) Each value represents mean±SD (n=6). The significance of in vivo data was analyzed by one-way Anova followed by Dunnet test. P<0.05 was considered as significant.

CD38 [2] = test: as above; settings: STZ diabetic rats, liver tissue, daily treatment for 28 days from day 15 after STZ, densitometry, n=6; normal control 100, diabetic control 112
GLUT4 [3] = test: Western blot of GLUT4 expression in skeletal muscles of streptozotocin-induced diabetic rats; settings: STZ diabetic rats, skeletal muscle membrane, daily treatment for 28 days from day 15 after STZ, i.p. (Table 1), densitometry, n=6; normal control 100, diabetic control 80
GLUT4 [4] = test: as above; parameters: concentration or dose not given beside the values; settings: STZ diabetic rats, skeletal muscle, 28 days treatment, versus diabetic control G2
Procedure: as §1, §2, §3, §4, §5, §6, §7, §8

SMILES	% Decrease of CD38 Disease control (CD38 [1])	Band Intensity of CD38 (%) 45 kDa (CD38 [2])	Band Intensity of GLUT4 (%) 54 kDa (GLUT4 [3])	% Increase of Glut4 over Disease control (GLUT4 [4])	downregulation of CD38 (result in words) (CD38 [1]; discussion of the Western blot results)
O=C(O)CC(=O)C(=O)O [Composition G6, Oxobutanedioic acid]	9.8%	101%	102%	27.5%	
CC1=CC(=O)CC(C)(C)[C@@]1(O)/C=C/C(C)=C\C(=O)O [Composition G3, (2Z,4E)-5-[(1S)-1-hydroxy-2,6,6-trimethyl-4-oxocyclohex-2-en-1-yl]-3-methylpenta-2,4-dienoic acid]	15.2%	95%	110%	37.5%	not sufficient to give significant results
CCCCCCCCCCCCCCC(=O)O [Composition G8, Pentadecanoic acid]	8.0%	103%	100%	25.0%	
CC(C)CC(N)C(=O)NC(CC(C)C)C(=O)O (stereo not drawn) [Composition G9, Dileucine]	11.6%	99%	98%	22.5%	
C[C@H](O)C(=O)N[C@@H](Cc1ccccc1)C(=O)O [Composition G7, (2S)-2-[[(2S)-2-hydroxypropanoyl]amino]-3-phenylpropanoic acid]	14.3%	96%	106%	32.5%	
CC(CN)C(=O)O (stereo not drawn) [Composition G4, 3-Aminoisobutyric acid]	11.6%	99%	104%	30.0%	
CC1=C(O)C(=O)C=C2C1=CC=C1[C@@]2(C)CC[C@@]2(C)[C@@H]3C[C@](C)(C(=O)O)CC[C@]3(C)CC[C@]12C [Composition G10, (2R,4aS,6aR,6aS,14aS,14bR)-10-hydroxy-2,4a,6a,6a,9,14a-hexamethyl-11-oxo-1,3,4,5,6,13,14,14b-octahydropicene-2-carboxylic acid]	9.8%	101%	95%	18.8%	
C[S+]([O-])CCCCN=C=S (stereo not drawn) [Composition G5, 1-isothiocyanato-4-methylsulfinylbutane]	8.9%	102%	95%	18.8%	

Reference: US20260263406A1, “SYNERGISTIC COMPOSITION FOR MODULATING EXPRESSION OF CD38” (CELAGENEX RESEARCH (INDIA) PVT. LTD., priority 2023, published 2026)
